Data on 17 compounds can be found in ChEMBL document CHEMBL1909046, “DrugMatrix in vitro pharmacology data”.

The target of data set [1] is T1, B2 bradykinin receptor (Homo sapiens, UniProt P30411). Also: in other assays of this panel Not Active means under 50% inhibition at 10 µM.
T1 sequence (P30411 whole entry): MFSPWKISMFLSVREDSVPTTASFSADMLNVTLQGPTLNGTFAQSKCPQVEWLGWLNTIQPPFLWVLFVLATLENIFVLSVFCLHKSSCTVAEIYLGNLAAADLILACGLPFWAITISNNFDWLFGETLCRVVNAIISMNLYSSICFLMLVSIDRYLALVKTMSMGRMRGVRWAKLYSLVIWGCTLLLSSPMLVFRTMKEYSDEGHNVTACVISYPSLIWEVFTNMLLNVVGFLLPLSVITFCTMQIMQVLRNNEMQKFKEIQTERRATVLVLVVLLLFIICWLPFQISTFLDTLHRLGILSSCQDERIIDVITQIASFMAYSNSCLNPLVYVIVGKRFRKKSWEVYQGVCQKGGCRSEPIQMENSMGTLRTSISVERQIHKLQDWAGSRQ
The format is cell membranes, Membrane. The following applies: chem-1.

The target in data set [2] is T2, Substance-K receptor (Homo sapiens, UniProt P21452). Also: in other assays of this panel Not Active means under 50% inhibition at 10 µM.
T2 sequence (P21452 whole entry): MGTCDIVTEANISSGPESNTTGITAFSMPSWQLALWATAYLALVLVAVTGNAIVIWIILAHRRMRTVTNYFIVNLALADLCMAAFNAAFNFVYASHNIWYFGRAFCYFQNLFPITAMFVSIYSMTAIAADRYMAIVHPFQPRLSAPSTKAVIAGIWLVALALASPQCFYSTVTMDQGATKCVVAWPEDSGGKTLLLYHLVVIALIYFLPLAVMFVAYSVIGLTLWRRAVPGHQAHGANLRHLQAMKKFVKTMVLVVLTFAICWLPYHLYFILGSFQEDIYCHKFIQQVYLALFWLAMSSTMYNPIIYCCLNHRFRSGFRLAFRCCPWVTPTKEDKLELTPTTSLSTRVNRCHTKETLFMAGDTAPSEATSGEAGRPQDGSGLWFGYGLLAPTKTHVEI
The format is cell membranes, CHO, Membrane.

The target of data set [3] is T3, D(4) dopamine receptor (Homo sapiens, UniProt P21917).
T3 sequence (P21917 whole entry): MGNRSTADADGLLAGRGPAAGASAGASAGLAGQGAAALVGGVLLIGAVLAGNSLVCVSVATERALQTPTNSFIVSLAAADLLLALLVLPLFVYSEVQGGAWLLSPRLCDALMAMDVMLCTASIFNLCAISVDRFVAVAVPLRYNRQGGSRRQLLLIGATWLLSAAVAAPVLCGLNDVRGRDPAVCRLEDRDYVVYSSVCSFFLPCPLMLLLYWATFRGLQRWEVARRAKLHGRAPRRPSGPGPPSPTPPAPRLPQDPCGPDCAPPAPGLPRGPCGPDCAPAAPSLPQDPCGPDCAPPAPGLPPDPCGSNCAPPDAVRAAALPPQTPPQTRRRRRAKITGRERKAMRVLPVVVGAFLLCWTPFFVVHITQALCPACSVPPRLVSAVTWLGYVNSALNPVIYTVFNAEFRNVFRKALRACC
Briefly: DRUGMATRIX: Dopamine D4.2 radioligand binding (ligand: [3H] Spiperone). The format is cell membranes, CHO-K1, Membrane. To be noted: cho-k1; Not Active = under 50% inhibition at 10 µM.

Data set [4] can be described thus: DRUGMATRIX: GABAA, Muscimol, Central radioligand binding (ligand: [3H] Muscimol). In kind it is cell membranes, Rattus norvegicus, Wistar, Brain, Membrane. To be noted: Not Active = under 50% inhibition at 10 µM.
For data set [5], the target named is Histamine H2 receptor (Homo sapiens, UniProt P25021). In kind it is cell membranes, CHO-K1, Membrane. To be noted: cho-k1. Also: in other assays of this panel Not Active means under 50% inhibition at 10 µM.
In data set [6] the target is T4, Neutrophil elastase (Homo sapiens, UniProt P08246).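 Also: inhibition of neutrophil elastase enzyme activity, measured with a p-nitroanilide-linked peptide substrate; in other assays of this panel Not Active means under 50% inhibition at 10 µM.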
T4 sequence (P08246 whole entry): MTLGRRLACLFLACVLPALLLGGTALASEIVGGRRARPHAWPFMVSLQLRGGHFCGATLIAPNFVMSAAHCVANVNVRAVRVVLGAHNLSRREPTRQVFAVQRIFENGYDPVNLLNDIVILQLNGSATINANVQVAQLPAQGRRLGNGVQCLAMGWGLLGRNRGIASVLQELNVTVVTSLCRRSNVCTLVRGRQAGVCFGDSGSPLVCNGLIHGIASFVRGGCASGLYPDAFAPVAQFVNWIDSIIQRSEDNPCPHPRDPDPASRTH
In kind it is tissue-based.

The target in data set [7] is Voltage-gated inwardly rectifying potassium channel KCNH2 (Homo sapiens, UniProt Q12809). To be noted: hek293. Also: in other assays of this panel Not Active means under 50% inhibition at 10 µM.
Voltage-gated inwardly rectifying potassium channel KCNH2, sequence (Q12809 whole entry): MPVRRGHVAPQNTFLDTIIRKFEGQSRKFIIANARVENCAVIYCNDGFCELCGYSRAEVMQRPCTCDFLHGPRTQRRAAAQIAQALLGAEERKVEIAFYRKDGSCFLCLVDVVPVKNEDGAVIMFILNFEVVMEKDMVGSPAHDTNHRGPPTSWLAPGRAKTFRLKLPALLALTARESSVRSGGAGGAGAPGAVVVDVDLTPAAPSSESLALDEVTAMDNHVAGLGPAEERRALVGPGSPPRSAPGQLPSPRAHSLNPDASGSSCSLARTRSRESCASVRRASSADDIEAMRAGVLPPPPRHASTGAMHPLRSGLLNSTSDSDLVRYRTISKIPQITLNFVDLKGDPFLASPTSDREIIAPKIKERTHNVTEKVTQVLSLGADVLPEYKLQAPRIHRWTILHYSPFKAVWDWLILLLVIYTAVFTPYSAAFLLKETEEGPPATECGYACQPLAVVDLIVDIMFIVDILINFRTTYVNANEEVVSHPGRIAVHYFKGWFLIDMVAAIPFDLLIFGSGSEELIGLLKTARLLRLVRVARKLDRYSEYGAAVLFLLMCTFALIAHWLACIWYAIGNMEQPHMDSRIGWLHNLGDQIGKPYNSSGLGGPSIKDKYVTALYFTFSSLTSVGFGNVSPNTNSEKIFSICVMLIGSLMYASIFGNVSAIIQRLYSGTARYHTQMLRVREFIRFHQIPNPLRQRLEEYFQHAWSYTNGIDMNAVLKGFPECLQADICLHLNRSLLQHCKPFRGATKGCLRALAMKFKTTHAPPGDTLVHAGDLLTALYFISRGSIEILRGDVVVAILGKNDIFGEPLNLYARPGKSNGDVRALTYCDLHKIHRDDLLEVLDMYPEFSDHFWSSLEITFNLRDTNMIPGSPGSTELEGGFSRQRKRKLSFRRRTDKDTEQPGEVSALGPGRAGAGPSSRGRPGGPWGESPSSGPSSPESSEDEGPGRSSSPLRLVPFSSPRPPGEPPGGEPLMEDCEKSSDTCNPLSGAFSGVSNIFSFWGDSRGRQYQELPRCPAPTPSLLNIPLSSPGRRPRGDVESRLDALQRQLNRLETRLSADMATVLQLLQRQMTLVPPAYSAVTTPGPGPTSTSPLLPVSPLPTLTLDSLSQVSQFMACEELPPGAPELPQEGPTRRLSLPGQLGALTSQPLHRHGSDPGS

Histamine H2 receptor, sequence (P25021 whole entry): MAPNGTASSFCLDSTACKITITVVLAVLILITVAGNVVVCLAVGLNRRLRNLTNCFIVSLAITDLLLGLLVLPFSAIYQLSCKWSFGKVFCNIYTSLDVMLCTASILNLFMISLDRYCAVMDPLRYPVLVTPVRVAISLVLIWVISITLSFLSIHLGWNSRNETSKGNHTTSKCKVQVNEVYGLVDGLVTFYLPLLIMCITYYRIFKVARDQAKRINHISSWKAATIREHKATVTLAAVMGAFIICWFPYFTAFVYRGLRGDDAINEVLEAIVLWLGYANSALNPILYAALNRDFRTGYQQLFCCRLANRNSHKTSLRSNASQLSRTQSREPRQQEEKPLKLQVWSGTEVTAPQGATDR

`COc1ccc(C[C@H]2NC[C@H](O)[C@H]2OC(C)=O)cc1` [ANISOMYCIN]: the IC50 result in data set [1], in data set [2] (cho), in data set [3], in data set [4], in data set [5] and in data set [6] was “Not Active” in each case. Also, the IC50 entry in data set [7] was “Not Active”. In addition, the Ki entry in data set [1], in data set [2] (cho), in data set [3], in data set [4], in data set [5] and in data set [6] was “Not Active” throughout. Also, in data set [7], the Ki result was “Not Active”.
Consider `CNNCc1ccc(C(=O)NC(C)C)cc1` [PROCARBAZINE], for which the half-maximal inhibitory concentration (IC50) entry in data set [1], in data set [2] (cho), in data set [3], in data set [4], in data set [5] and in data set [6] was “Not Active” throughout. Further, the concentration for half-maximal inhibition (IC50) result in data set [7] was “Not Active”. Moreover, the inhibitory constant (Ki) entry in data set [4] and in data set [7] was “Not Active” in each case.
Turning to `Cc1onc(O)c1CC(N)C(=O)O` (racemic) [(R,S)-AMPA], the IC50 result in data set [1], in data set [2] (cho), in data set [3], in data set [4], in data set [5] and in data set [6] was “Not Active” each time. Besides, in data set [7], the 50% inhibitory concentration (IC50) entry is on record as “Not Active”. Besides, the inhibitory constant (Ki) result in data set [4] and in data set [7] was “Not Active” each time.
On to `Cc1c(O)c(=O)ccn1C` [DEFERIPRONE], for which the IC50 entry in data set [1], in data set [2] (cho), in data set [3], in data set [4], in data set [5] and in data set [6] was “Not Active” in each case. Also, the IC50 entry in data set [7] is on record as “Not Active”. Also, the inhibitory constant (Ki) entry in data set [4] and in data set [7] was “Not Active” in each case.
Turning to `Nc1ncn([C@@H]2O[C@H](CO)[C@@H](O)[C@H]2O)c(=O)n1` [AZACITIDINE], the half-maximal inhibitory concentration (IC50) result in data set [1], in data set [2] (cho), in data set [3], in data set [4], in data set [5] and in data set [6] was “Not Active” each time. For the same compound, the half-inhibitory concentration (IC50) result in data set [7] is listed as “Not Active”. Further, the Ki entry in data set [4] and in data set [7] was “Not Active” each time.
Consider `CCn1cc(C(=O)O)c(=O)c2cc(F)c(N3CCNCC3)cc21` [NORFLOXACIN], for which the IC50 result in data set [1], in data set [2] (cho), in data set [3], in data set [4], in data set [5] and in data set [6] was “Not Active” in each case. Further, in data set [7], the half-inhibitory concentration (IC50) entry is listed as “Not Active”. In addition, the Ki entry in data set [4] and in data set [7] was “Not Active” throughout.
With `CN(C)CCCN1c2ccccc2Sc2ccc(Cl)cc21` [CHLORPROMAZINE], the IC50 entry in data set [1] is “Not Active”; in data set [2] (read-out: IC50), 27.2 µM; in data set [4], “Not Active”; in data set [6] it was “Not Active”. Further, the Ki in data set [2] (read-out: Ki) is 9.07 µM; in data set [4] it was “Not Active”.
Regarding `CCOC(=O)C1=C(COCCN)NC(C)=C(C(=O)OC)C1c1ccccc1Cl` (centres undefined) [AMLODIPINE], the IC50 entry in data set [1], in data set [2] (cho), in data set [3], in data set [4], in data set [5] and in data set [6] was “Not Active” in each case. Moreover, the inhibition constant Ki entry in data set [4] is on record as “Not Active”.
With `CC1Cc2ccccc2N1NC(=O)c1ccc(Cl)c(S(N)(=O)=O)c1` (centres undefined) [INDAPAMIDE], the IC50 entry in data set [1], in data set [2] (cho), in data set [3], in data set [4], in data set [5] and in data set [6] was “Not Active” each time. Further, the IC50 entry in data set [7] was “Not Active”. Also, the Ki result in data set [4] and in data set [7] was “Not Active” throughout.
LEAD (II) ACETATE: the IC50 result in data set [1], in data set [2] (cho), in data set [3], in data set [4], in data set [5] and in data set [6] was “Not Active” throughout. For the same compound, in data set [7], the half-inhibitory concentration (IC50) entry is listed as “Not Active”. Further, the inhibition constant (Ki) entry in data set [1], in data set [2] (cho), in data set [3], in data set [4], in data set [5] and in data set [6] was “Not Active” in each case. In data set [7], the inhibitory constant (Ki) entry is reported as “Not Active”.
Turning to `Cc1ccc(N(CC2=NCCN2)c2cccc(O)c2)cc1` [PHENTOLAMINE], the concentration for half-maximal inhibition (IC50) result in data set [1], in data set [2] (cho), in data set [3], in data set [4], in data set [5] and in data set [6] was “Not Active” throughout. Further, in data set [4], the Ki entry is “Not Active”.
On to `CC(NC(C)(C)C)C(=O)c1cccc(Cl)c1` (centres undefined) [BUPROPION], for which the half-inhibitory concentration (IC50) result in data set [1], in data set [2] (cho), in data set [3], in data set [4], in data set [5] and in data set [6] was “Not Active” each time. Further, the Ki result in data set [4] is recorded as “Not Active”.
Turning to `Nc1nc2c(ncn2COCCO)c(=O)[nH]1` [ACYCLOVIR], the half-maximal inhibitory concentration (IC50) result in data set [1], in data set [2] (cho), in data set [3], in data set [4], in data set [5] and in data set [6] was “Not Active” in each case. Besides, in data set [4], the Ki result is recorded as “Not Active”.
Consider `CNCCCN1c2ccccc2CCc2ccccc21` [DESIPRAMINE], for which the IC50 entry in data set [1], in data set [2] (cho), in data set [3], in data set [4], in data set [5] and in data set [6] was “Not Active” throughout. Also, the Ki entry in data set [4] is “Not Active”.
Turning to `O=C(CCCN1CC=C(n2c(=O)[nH]c3ccccc32)CC1)c1ccc(F)cc1` [DROPERIDOL], the half-maximal inhibitory concentration (IC50) result in data set [1], in data set [2] (cho), in data set [3], in data set [4], in data set [5] and in data set [6] was “Not Active” in each case. For the same compound, the inhibitory constant (Ki) result in data set [4] is listed as “Not Active”.
Consider `N=C(N)NCCN1CCCCCCC1` [GUANETHIDINE], for which the half-maximal inhibitory concentration (IC50) result in data set [1], in data set [2] (cho), in data set [3], in data set [4], in data set [5] and in data set [6] was “Not Active” throughout. Also, in data set [4], the inhibition constant Ki entry is on record as “Not Active”.
Consider `COc1cc2nc(N3CCN(C(=O)C4COc5ccccc5O4)CC3)nc(N)c2cc1OC` (centres undefined) [DOXAZOSIN], for which the IC50 entry in data set [1], in data set [2] (cho), in data set [3], in data set [4], in data set [5] and in data set [6] was “Not Active” throughout. The Ki result in data set [4] is reported as “Not Active”.
